Measurements as given in patent US20180186742A1, “PICOLINAMIDES AS FUNGICIDES” (Dow AgroSciences LLC, priority 2017, published 2018).
Read-outs that look alike come from different tables or passages of the source.

Legend:
Assay type in all cases: in vivo
Puccinia triticina = experiment: Wheat brown rust (PUCCRT), disease control on wheat seedlings; settings: for pest or weed control at 121.5 g/ha: low volume application at 121.5 g/H; for pest or weed control at 100 ppm: high volume application at 100 ppm
Procedure, shortened: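 Compounds in acetone, diluted with nine volumes of water containing 110 ppm Triton X-100, sprayed to run-off on first-leaf Yuma wheat seedlings; track-spray tests used EC formulations with 0.1% Trycol 5941. Puccinia triticina spores applied before or after treatment. Overnight dark dew room at 22° C, 100% humidity, then greenhouse at 24° C.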

Zymoseptoria tritici = experiment: Leaf blotch of wheat (SEPTTR), disease control on wheat seedlings; settings: for pest or weed control at 121.5 g/ha: low volume application at 121.5 g/H; for pest or weed control at 100 ppm: high volume application at 100 ppm
Procedure, shortened: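 Yuma wheat seedlings with the first leaf fully emerged were sprayed to run-off with compound in acetone plus nine volumes of water containing 110 ppm Triton X-100; track-spray tests used EC formulations with 0.1% Trycol 5941. Z. tritici inoculation came before or after treatment, followed by 100% RH dew periods and a 20 °C greenhouse. Percent control was calculated from severity versus untreated plants.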

Phakopsora pachyrhizi = experiment: Asian soybean rust (PHAKPA), disease control on soybean seedlings; settings: High volume application at 25 ppm
Protocol: Technical grades of materials were dissolved in acetone, which were then mixed with nine volumes of water containing 0.011% Tween 20. The fungicide solutions were applied onto soybean seedlings using an automated booth sprayer to run-off. All sprayed plants were allowed to air dry prior to further handling.
Soybean plants (variety Williams 82) were grown in soil-less Metro mix, with one plant per pot. Two week old seedlings were used for testing. Plants were inoculated either 3 days prior to or 1 day after fungicide treatments. Plants were incubated for 24 h in a dark dew room at 22° C. and 100% relative humidity then transferred to a growth room at 23° C. for disease to develop. Disease severity was assessed on the sprayed leaves.

[1] = 24 h, 1 Day Protectant, read-out: PUCCRT disease control, 1DP, LV activity
[2] = 72 h, 3 Day Curative, read-out: PUCCRT disease control, 3DC, LV activity
[3] = 24 h, 1 Day Protectant, read-out: SEPTTR disease control, 1DP, LV activity
[4] = 72 h, 3 Day Curative, read-out: SEPTTR disease control, 3DC, LV activity
[5] = 24 h, 1 Day Protectant, read-out: PHAKPA 1DP disease control rating
[6] = 72 h, 3 Day Curative, read-out: PHAKPA 3DC disease control rating
[7] = 24 h, 1 Day Protectant, wheat brown rust, read-out: PUCCRT 1DP disease control, LV activity
[8] = 72 h, 3 Day Curative, wheat brown rust, read-out: PUCCRT 3DC disease control, LV activity
[9] = 24 h, 1 Day Protectant, wheat leaf blotch, read-out: SEPTTR 1DP disease control, LV activity
[10] = 72 h, 3 Day Curative, wheat leaf blotch, read-out: SEPTTR 3DC disease control, LV activity

Compound	pest or weed control at 121.5 g/ha (Puccinia triticina; [1])	pest or weed control at 121.5 g/ha (Puccinia triticina; [2])	pest or weed control at 121.5 g/ha (Zymoseptoria tritici; [3])	pest or weed control at 121.5 g/ha (Zymoseptoria tritici; [4])	pest or weed control at 25 ppm (Phakopsora pachyrhizi; [5])	pest or weed control at 25 ppm (Phakopsora pachyrhizi; [6])	pest or weed control at 121.5 g/ha (Puccinia triticina; [7])	pest or weed control at 121.5 g/ha (Puccinia triticina; [8])	pest or weed control at 121.5 g/ha (Zymoseptoria tritici; [9])	pest or weed control at 121.5 g/ha (Zymoseptoria tritici; [10])	pest or weed control at 100 ppm (Puccinia triticina; 24 h, 1 Day Protectant, read-out: PUCCRT disease control, 1DP, HV activity)	pest or weed control at 100 ppm (Puccinia triticina; 72 h, 3 Day Curative, read-out: PUCCRT disease control, 3DC, HV activity)	pest or weed control at 100 ppm (Zymoseptoria tritici; 24 h, 1 Day Protectant, read-out: SEPTTR disease control, 1DP, HV activity)	pest or weed control at 100 ppm (Zymoseptoria tritici; 72 h, 3 Day Curative, read-out: SEPTTR disease control, 3DC, HV activity)
CCC(C)[C@H](c1ccc(C)cc1C)[C@H](C)OC(=O)[C@H](C)NC(=O)c1c(O)c(OC)cc[n+]1[O-] (stereo partly shown) [Compound 213]	< 80%	< 0%	< 80%	< 80%	< 0%	< 0%								
COc1ccnc(C(=O)N[C@@H](C)C(=O)O[C@@H](C)[C@H](c2ccc(Cl)cc2Cl)C(C)C)c1OC(C)=O [Compound 367]					> 80%	> 80%	> 80%	> 80%	> 80%	< 80%				
COc1ccnc(C(=O)N[C@@H](C)C(=O)O[C@@H](C)[C@H](c2ccc(OC(C)C)cc2)C(C)C)c1OCOC(C)=O [Compound 379]					< 80%	< 80%	> 80%	< 80%	< 80%	< 80%				
COc1cc(F)ccc1[C@H](C1CCCCC1)[C@H](C)OC(=O)[C@H](C)NC(=O)c1nccc(OC)c1OC(C)=O [Compound 227]	> 80%	> 80%	> 80%	> 80%	> 80%	< 80%								
COc1cc(F)ccc1[C@H](C1CCC1)[C@H](C)OC(=O)[C@H](C)NC(=O)c1nccc(OC)c1OC(C)=O [Compound 231]	< 80%	< 80%	< 80%	< 80%	> 80%	< 80%								
CCC(C)[C@@H](c1ccc(F)cc1C)[C@H](C)OC(=O)[C@H](C)NC(=O)c1nccc(OC)c1OC(C)=O (stereo partly shown) [Compound 188]	> 80%	< 80%	> 80%	> 80%	> 80%	> 80%								
COc1cc(F)ccc1[C@H](C1CCC1)[C@H](C)OC(=O)[C@H](C)NC(=O)c1nccc(OC)c1OCOC(C)=O [Compound 236]	< 80%	< 80%	< 80%	< 80%	> 80%	< 80%								
CC[C@H](C)[C@H](NC(=O)c1nccc(OC)c1OC(C)=O)C(=O)O[C@@H](C)[C@H](c1ccc(F)cc1C)C(C)C [Compound 348]	> 80%	< 80%	< 80%	< 80%	> 80%	< 80%								
COc1ccnc(C(=O)N[C@@H](C)C(=O)O[C@H](C)[C@H](c2ccc(F)cc2C)C2CCCCC2)c1OC(C)=O [Compound 191]	< 0%	< 80%	< 80%	< 80%	< 80%	< 0%								
COc1ccnc(C(=O)N[C@@H](C)C(=O)O[C@@H](C)[C@H](c2ccc3c(c2)OCO3)C(C)C)c1OC(C)=O [Compound 380]					< 80%	< 80%	> 80%	> 80%	< 80%	< 80%				
CCC(C)[C@@H](c1ccc(F)cc1C)[C@H](C)OC(=O)[C@H](C)NC(=O)c1nccc(OC)c1OCOC(C)=O (stereo partly shown) [Compound 196]	> 80%	> 80%	> 80%	> 80%	> 80%	< 80%								
COc1ccnc(C(=O)N[C@@H](C)C(=O)O[C@@H](C)[C@@H](c2ccccc2)C(C)C)c1OCOC(C)=O [Compound 162]	> 80%	> 80%	< 80%	> 80%	> 80%	< 80%								
COc1ccnc(C(=O)N[C@@H](C)C(=O)O[C@@H](C)[C@H](c2ccc(C)c(F)c2)C(C)C)c1OC(C)=O [Compound 243]	> 80%	< 80%	< 0%	< 80%	> 80%	< 80%								
COc1ccnc(C(=O)N[C@@H](C)C(=O)O[C@@H](C)[C@H](c2ccc(F)cc2)C(C)C)c1OC(C)=O [Compound 214]	> 80%	> 80%	> 80%	> 80%	> 80%	< 80%								
COc1ccnc(C(=O)N[C@@H](C)C(=O)O[C@@H](C)[C@H](c2cc(F)ccc2C)C(C)C)c1OC(C)=O [Compound 361]	> 80%	< 80%	< 80%	< 80%	> 80%	> 80%								
CCC(C)[C@H](c1ccc(C)cc1C)[C@H](C)OC(=O)[C@H](C)NC(=O)c1nccc(OC)c1OCOC(C)=O (stereo partly shown) [Compound 207]	> 80%	< 80%	< 80%	> 80%	> 80%	< 0%								
COc1ccnc(C(=O)N[C@@H](C)C(=O)O[C@@H](C)[C@H](c2ccc(OC(F)(F)F)cc2)C(C)C)c1OC(C)=O [Compound 381]					< 80%	< 80%	> 80%	< 80%	> 80%	> 80%				
COc1ccnc(C(=O)N[C@@H](C)C(=O)O[C@@H](C)[C@@H](c2ccc(C)cc2C)C(C)C)c1OC(C)=O [Compound 200]	< 80%	< 80%	< 0%	< 80%	< 80%	< 0%								
COc1cc[n+]([O-])c(C(=O)N[C@@H](C)C(=O)O[C@@H](C)[C@@H](c2ccc(C)cc2C)C(C)C)c1O [Compound 211]	< 0%	< 0%	< 80%	< 0%	< 80%	< 0%					< 80%	< 0%	< 80%	< 80%
COc1ccnc(C(=O)N[C@@H](C)C(=O)O[C@@H](C)[C@@H](c2ccc(C)cc2C)C2CCC2)c1OC(C)=O [Compound 241]	< 80%	< 80%	< 0%	> 80%	< 80%	< 80%								
COc1ccnc(C(=O)N[C@@H](C)C(=O)O[C@@H](C)[C@@H](c2ccc(C)cc2F)C(C)C)c1OC(C)=O [Compound 369]					< 80%	< 80%	> 80%	< 80%	< 80%	< 80%				
COc1ccnc2c(=O)n([C@@H](C)C(=O)O[C@@H](C)[C@@H](c3ccc(C)cc3C)C(C)C)c(=O)oc12 [Compound 208]	< 80%	< 80%	< 0%	< 80%	< 80%	< 0%								
